Results taken from patent publication US20240390352A1, “PHARMACEUTICAL COMPOSITION FOR PREVENTING OR TREATING CANCER COMPRISING CARNITINE ACYLCARNITINE CARRIER INHIBITOR AND ANTITUMOR AGENT” (NEW CANCER CURE - BIO CO.,LTD., priority 2021, published 2024).
Where “and” joins values, the source holds several entries; their conditions need not be identical. Equal values may be shown once. Entries after “also recorded” stand apart in the source; their conditions may differ.

Columns and labels:
[1] = test system: HCT-116 cells; assay: SRB assay cancer cell growth rate, HCT-116; format: cell-based; details: relative to control (100%), 48 hours, KN510 200 μM, irinotecan 2.5 μM, 5-FU 5 μM, gemcitabine 2.5 μM, paclitaxel 10 nM, cisplatin 1 μM, alone or KN510 + anticancer drug
[2] = test system: CAKI-1 cells; assay: SRB assay cancer cell growth rate, CAKI-1; format: cell-based; details: relative to control (100%), 48 hours, KN510 200 μM, irinotecan 2.5 μM, 5-FU 5 μM, gemcitabine 2.5 μM, paclitaxel 10 nM, cisplatin 1 μM, alone or KN510 + anticancer drug
[3] = test system: ACHN cells; assay: SRB assay cancer cell growth rate, ACHN; format: cell-based; details: relative to control (100%), 48 hours, KN510 200 μM, irinotecan 2.5 μM, 5-FU 5 μM, gemcitabine 2.5 μM, paclitaxel 10 nM, cisplatin 1 μM, alone or KN510 + anticancer drug
[4] = test system: UACC62 cells; assay: SRB assay cancer cell growth rate, UACC62; format: cell-based; details: relative to control (100%), 48 hours, KN510 200 μM, irinotecan 2.5 μM, 5-FU 5 μM, gemcitabine 2.5 μM, paclitaxel 10 nM, cisplatin 1 μM, alone or KN510 + anticancer drug
[5] = test system: UACC257 cells; assay: SRB assay cancer cell growth rate, UACC257; format: cell-based; details: relative to control (100%), 48 hours, KN510 200 μM, irinotecan 2.5 μM, 5-FU 5 μM, gemcitabine 2.5 μM, paclitaxel 10 nM, cisplatin 1 μM, alone or KN510 + anticancer drug
[6] = test system: OVCAR-8 cells; assay: SRB assay cancer cell growth rate, OVCAR-8; format: cell-based; details: relative to control (100%), 48 hours, KN510 200 μM, irinotecan 2.5 μM, 5-FU 5 μM, gemcitabine 2.5 μM, paclitaxel 10 nM, cisplatin 1 μM, alone or KN510 + anticancer drug
[7] = test system: A549 cells; assay: SRB assay cancer cell growth rate, A549; format: cell-based; details: relative to control (100%), 48 hours, KN510 200 μM, irinotecan 2.5 μM, 5-FU 5 μM, gemcitabine 2.5 μM, paclitaxel 10 nM, cisplatin 1 μM, alone or KN510 + anticancer drug
[8] = test system: PC-3 cells; assay: SRB assay cancer cell growth rate, PC-3; format: cell-based; details: relative to control (100%), 48 hours, KN510 200 μM, irinotecan 2.5 μM, 5-FU 5 μM, gemcitabine 2.5 μM, paclitaxel 10 nM, cisplatin 1 μM, alone or KN510 + anticancer drug
[9] = test system: SR cells; assay: SRB assay cancer cell growth rate, SR; format: cell-based; details: relative to control (100%), 48 hours, KN510 200 μM, irinotecan 2.5 μM, 5-FU 5 μM, gemcitabine 2.5 μM, paclitaxel 10 nM, cisplatin 1 μM, alone or KN510 + anticancer drug
[10] = test system: K562 cells; assay: SRB assay cancer cell growth rate, K562; format: cell-based; details: relative to control (100%), 48 hours, KN510 200 μM, irinotecan 2.5 μM, 5-FU 5 μM, gemcitabine 2.5 μM, paclitaxel 10 nM, cisplatin 1 μM, alone or KN510 + anticancer drug
[11] = test system: colon cancer cell lines HCT-116 cells and COLO-205 cells; assay: Synergistic effect of omeprazole and anticancer drug, colon cancer cell lines; format: cell-based; details: anticancer drug combined with omeprazole (KN510) versus each treatment alone
[12] = test system: renal cell carcinoma cell lines CAKI-1 and ACHN cells; assay: Synergistic effect of omeprazole and anticancer drug, renal cancer cell lines; format: cell-based; details: anticancer drug combined with omeprazole (KN510) versus each treatment alone
[13] = test system: liver cancer cell lines SK-HEP-1 cells and Huh-7 cells; assay: Synergistic effect of omeprazole and anticancer drug, liver cancer cell lines; format: cell-based; details: anticancer drug combined with omeprazole (KN510) versus each treatment alone
[14] = test system: glioblastoma (GBM) cell lines, U-87 MG cells and T87G cells; assay: Synergistic effect of omeprazole and anticancer drug, glioblastoma cell lines; format: cell-based; details: anticancer drug combined with omeprazole (KN510) versus each treatment alone
[15] = test system: melanoma cell lines UACC62 cells and UACC257 cells; assay: Synergistic effect of omeprazole and anticancer drug, melanoma cell lines; format: cell-based; details: anticancer drug combined with omeprazole (KN510) versus each treatment alone
[16] = test system: pancreatic ductal adenocarcinoma (PDAC) cell lines, MIA PaCa-2 cells and PANC-1 cells; assay: Synergistic effect of omeprazole and anticancer drug, pancreatic cancer cell lines; format: cell-based; details: anticancer drug combined with omeprazole (KN510) versus each treatment alone
[17] = test system: MKN-28 cells and AGS cells, stomach cancer cells; assay: Synergistic effect of omeprazole and anticancer drug, stomach cancer cells; format: cell-based; details: anticancer drug combined with omeprazole (KN510) versus each treatment alone
[18] = test system: ovarian cancer cells, OVCAR-8 cells and SK-OV-3 cells; assay: Synergistic effect of omeprazole and anticancer drug, ovarian cancer cells; format: cell-based; details: anticancer drug combined with omeprazole (KN510) versus each treatment alone
[19] = test system: A549 and H23 lung cancer cells; assay: Synergistic effect of omeprazole and anticancer drug, lung cancer cells; format: cell-based; details: anticancer drug combined with omeprazole (KN510) versus each treatment alone
[20] = test system: breast cancer cells, MDA-MB-231 cells and MCF-7 cells; assay: Synergistic effect of omeprazole and anticancer drug, breast cancer cells; format: cell-based; details: anticancer drug combined with omeprazole (KN510) versus each treatment alone
[21] = test system: prostate cancer cells, PC-3 cells and DU-145 cells; assay: Synergistic effect of omeprazole and anticancer drug, prostate cancer cells; format: cell-based; details: anticancer drug combined with omeprazole (KN510) versus each treatment alone
[22] = test system: leukemia cells, SR cells and K562 cells; assay: Synergistic effect of omeprazole and anticancer drug, leukemia cells; format: cell-based; details: anticancer drug combined with omeprazole (KN510) versus each treatment alone
[23] = test system: MIA PaCa-2 cells xenograft tumor; assay: Pancreatic cancer xenograft tumor model; format: in vivo, Balb/c nude mice; details: irinotecan 20 mg/kg IP 1 days/week, alone or combined
Method: To determine the anticancer synergistic effects of omeprazole (KN510) and irinotecan co-administration in vivo, a pancreatic cancer xenograft tumor model was constructed and administered with the drugs.
Specifically, 6-8 week old Balb/c nude mice (Orient, Korea) were inoculated subcutaneously with MIA PaCa-2 cells (1×10^7) in 100 μl PBS using 1 ml syringe, and when the tumor size reached 100 mm^3, the mice were randomly divided into 4 groups with 4 mice per group, and then treated with drugs as shown in Table 14 below.
We also performed two separate experiments with omeprazole (KN510), one at a concentration of 50 mg/kg and the other at 100 mg/kg. • 1) Control (solvent treatment) • 2) Omeprazole (KN510) alone (50 mg/kg or 100 mg/kg, P.O. injection), • 3) Irinotecan alone (20 mg/kg, I.P injection), • 4) Omeprazole (KN510) (50 mg/kg or 100 mg/kg)+irinotecan (20 mg/kg/) as a combination treatment group
Primary tumor size was measured weekly using calipers. Tumor volumes were calculated using Equation 1 below, and data are expressed as mean (mean)+standard deviation (SD) values of mouse tumor volume per group.

[24] = experiment with KN510 50 mg/kg PO 5 days/week
[25] = experiment with KN510 100 mg/kg PO 5 days/week

| SMILES | HCT-116 growth rate average (%) [1] | CAKI-1 growth rate average (%) [2] | ACHN growth rate average (%) [3] | UACC62 growth rate average (%) [4] | UACC257 growth rate average (%) [5] | OVCAR-8 growth rate average (%) [6] | A549 growth rate average (%) [7] | PC-3 growth rate average (%) [8] | SR growth rate average (%) [9] | K562 growth rate average (%) [10] | synergistic effect of omeprazole and an anticancer drug in combination, colon cancer [11] | synergistic effect of omeprazole and an anticancer drug in combination, renal cell carcinoma [12] | synergistic effect of omeprazole and an anticancer drug in combination, liver cancer [13] | synergistic effect of omeprazole and an anticancer drug in combination, glioblastoma (GBM) [14] | synergistic effect of omeprazole and an anticancer drug in combination, melanoma [15] | synergistic effect of omeprazole and an anticancer drug in combination, pancreatic cancer (PDAC) [16] | synergistic effect of omeprazole and an anticancer drug in combination, stomach cancer [17] | synergistic effect of omeprazole and an anticancer drug in combination, ovarian cancer [18] | synergistic effect of omeprazole and an anticancer drug in combination, lung cancer [19] | synergistic effect of omeprazole and an anticancer drug in combination, breast cancer [20] | other results |
| --- | --- | --- | --- | --- | --- | --- | --- | --- | --- | --- | --- | --- | --- | --- | --- | --- | --- | --- | --- | --- | --- |
| O=c1[nH]cc(F)c(=O)[nH]1 [5-FU, fluorouracil] | 41.59% | 47.91% | 48.97% | 52.14% | 62.17% | 27.12% | 27.36% | 55.19% | 96.15% | 99.83% | significantly inhibited; also recorded: Positive effect | significantly inhibited; also recorded: Positive effect | significantly inhibited; also recorded: Positive effect | Negative effect | significantly inhibited; also recorded: Positive effect | Negative effect | Negative effect | Negative effect | significantly inhibited; also recorded: Positive effect | Negative effect | synergistic effect of omeprazole and an anticancer drug in combination, prostate cancer [21]: Negative effect; synergistic effect of omeprazole and an anticancer drug in combination, leukemia [22]: significantly inhibited; also recorded: Positive effect |
| N.N.[Cl][Pt][Cl] [Cisplatin] | 100.00% | 88.17% | 78.57% | 62.76% | 76.16% | 51.47% | 99.46% | 82.60% | 93.52% | 102.62% | Negative effect | Negative effect | Negative effect | Negative effect | Negative effect | Negative effect | Negative effect | Positive effect | Negative effect | Negative effect | synergistic effect of omeprazole and an anticancer drug in combination, ovarian cancer ([18]; listed as cisplatin): significantly inhibited; synergistic effect of omeprazole and an anticancer drug in combination, prostate cancer [21]: Negative effect; synergistic effect of omeprazole and an anticancer drug in combination, leukemia [22]: Positive effect; synergistic effect of omeprazole and an anticancer drug in combination, leukemia ([22]; listed as cisplatin): significantly inhibited |
| Nc1ccn([C@@H]2O[C@H](CO)[C@@H](O)C2(F)F)c(=O)n1 [Gemcitabine] | 16.32% | 2.30% | −2.82% | 53.65% | 30.97% | −14.25% | −16.60% | 32.17% | 53.15% | 53.51% | Negative effect | Negative effect | Negative effect | Negative effect | Negative effect | Negative effect | Negative effect | Negative effect | Negative effect | Negative effect | synergistic effect of omeprazole and an anticancer drug in combination, prostate cancer [21]: Negative effect; synergistic effect of omeprazole and an anticancer drug in combination, leukemia [22]: Negative effect |
| COc1ccc2[nH]c([S+]([O-])Cc3ncc(C)c(OC)c3C)nc2c1 (stereo not drawn) [KN510, omeprazole] | 35.30% | 41.69% and 35.30% |  |  | 10.97% and 3.31% and 3.10% and 4.33% | 30.64% and 38.65% | 10.47% | 12.70% | 42.75% | 34.61% |  |  |  |  |  |  |  |  |  |  | Tumor volume, 2 week average [23, 24]: 143.01 mm^3; Tumor volume, 2 week average [23, 25]: 93.96 mm^3; Tumor volume, 3 week average [23, 24]: 675.69 mm^3; Tumor volume, 3 week average [23, 25]: 229.95 mm^3; Tumor volume, 4 week average [23, 24]: 965.63 mm^3; Tumor volume, 4 week average [23, 25]: 469.90 mm^3; Tumor volume, 5 week average [23, 24]: 1296.93 mm^3; Tumor volume, 5 week average [23, 25]: 843.25 mm^3 |
